Results from patent US9120833B2, “Polyfluoroalkylphosphonic acid ester and process for producing the same” (Unimatec Co., Ltd., priority 2009, dated 2015).

Conditions: 3 wt. % in base oil CnF2n+1(CF2CF2CF2O)mCnF2n+1 (viscosity at 40° C.: 210 mm^2/s), stirred under heating, stored at 25° C. for 24 hours
Method: The phosphonic acid ester (3 wt. %) obtained in Example 1 or 7 was added to a base oil of the formula: CnF2n+1(CF2CF2CF2O)mCnF2n+1 (viscosity at 40° C.: 210 mm^2/s), and the mixture was sufficiently stirred under heating. After the mixture was stored at 25° C. for 24 hours, the solubility of the phosphonic acid ester in the base oil was visually observed.

With `CCOP(=O)(CCC(F)(F)C(F)(F)C(F)(F)C(F)(F)C(F)(F)CC(F)(F)C(F)(F)C(F)(F)C(F)(F)F)OCC` [Example 1, CF3(CF2)3(CH2CF2)(CF2CF2)2(CH2CH2)P(O)(OCH2CH3)2] the “solubility of the phosphonic acid ester in the base oil (visually observed)” value was “dissolved into an almost transparent solution”.
